Assay results reported in patent publication US10561638B2, “Methods for treating dependence” (Biotie Therapies, Inc., priority 2007, dated 2020).

Experiments:
[1] = tested on: tissue noradrenaline and dopamine content; experiment: Tissue catecholamines in beagle dogs dosed b.i.d. for 5 days; type: in vivo; settings: for maximal increase in DA/NE ratio: 5 mg/kg b.i.d.; for decrease in noradrenaline / increase in dopamine: 5 mg/kg b.i.d. po
Protocol: Male beagle dogs (10-16 kg, Marshall Farms USA Inc, North Rose, N.Y., USA) were also used in in vivo studies. On the day of the study, dogs were weighed and randomly assigned to be orally dosed with either empty capsules (control) or the appropriate dose of nepicastat (0.05, 0.5, 1.5 or 5 mg·kg^−1; po, b.i.d.) for 5 days. At six hours following the first dose on day-5, the dogs were euthanized with pentobarbital and the tissues (cerebral cortex, renal artery, left ventricle) were rapidly harvested. The tissues were subsequently processed and analyzed for noradrenaline and dopamine.
Nepicastat was used in in vivo biochemical studies to study the effects in spontaneously hypertensive rats (SHRs) and normal beagle dogs. On the day of the study, the animals were weighed and randomly assigned to receive either placebo (vehicle) or the appropriate dose of nepicastat. Each rat was dosed orally three times, 12 h apart, beginning in the morning. At 6 h after the third dose, the rats were anesthetized with halothane, decapitated, and the tissues (cerebral cortex, mesenteric artery and left ventricle) were rapidly harvested, weighed, placed in iced 0.4 M perchloric acid, frozen in liquid nitrogen and stored at −70° C. until analysis. Tissue NE and DA concentrations were assayed by HPLC using electrochemical detection. Male beagle dogs (10-16 kg, Marshall Farms USA Inc, North Rose, N.Y.) were used in the study. On the day of the study, dogs were randomly assigned to receive either placebo (empty capsule) or the appropriate dose of nepicastat. Each dog was dosed twice a day for 4.5 days. 6 h after the first dose on day 5, the dogs were euthanized with pentobarbital and the tissues (cerebral cortex. renal artery, left ventricle) harvested, weighed, placed in iced 0.4 M perchloric acid, frozen in liquid nitrogen and stored at −70° C. until analysis. Tissue NE and DA concentrations were assayed by HPLC using electrochemical detection.

[2] = tested on: tissue norepinephrine and dopamine levels; experiment: Tissue catecholamines in SHRs after single dose (dose response, time course); type: in vivo, spontaneously hypertensive rats; settings: for dose with significant change in dopamine/norepinephrine ratio: 6 h after single oral dose
Protocol: Significant changes in these parameters were also observed in the left ventricle of male Sprague-Dawley rats 6 hours after the second of two i.v. injections (15 mg/kg) given 12 hours apart. The 24 hour time course of tissue catecholamines was studied in male SHRs following oral administration of either 10 or 30 mg/kg, respectively. The increase in the dopamine/norepinephrine ratio was significant at 1 hour, and was long lasting (12 hours at 10 mg/kg, mesenteric artery, and 24 hours at 30 mg/kg, left ventricle).
(§1) In SHRs there were significant changes in the dopamine/norepinephrine ratio in the mesenteric artery at doses of 0.3 mg/kg, in the left ventricle at 3.0 mg/kg, and in the cerebral cortex at 10 mg/kg. […] In a second dose-response study in SHRs, three doses were administered 12 hours apart at either 3.0, 10, 30, or 100 mg/kg, and tissue was harvested six hours after the third dose. Nepicastat caused a significant dose dependent decrease in norepinephrine (10 mg/kg) and increase in dopamine (3.0 mg/kg) and the dopamine/norepinephrine ratio (3.0 mg/kg) in the left ventricle and mesenteric artery. The effects of nepicastat on dopamine and norepinephrine concentrations, and the dopamine/norepinephrine ratio in the cerebral cortex were significant only at 30 and 100 mg/kg.
The purpose of this study was to determine the 24 hours time course of the effects of nepicastat (10 mg/kg) on dopamine and norepinephrine levels in the mesenteric artery following a single oral dose in spontaneously hypertensive rats. Catecholamine levels were measured at 1, 2, 4, 6, 8, 12, 16, and 24 hours after a single oral administration of either nepicastat (10 mg/kg) or vehicle (dH2O; 10 ml/kg).
Sixteen-17 week old, male spontaneous hypertensive rats (SHRs) weighing 300-400 grams were allowed food and water ad libitum. Animals were weighed and randomly assigned, the afternoon before the study, to one of the following treatment groups (n=9 per group): a single oral administration of nepicastat at 10 mg/kg or a single oral administration of vehicle (10 ml/kg) to be sacrificed at 1, 2, 4, 6, 8, 12, 16, or 24 hours.
Animals were dosed […] the morning of sacrifice. At 1, 2, 4, 6, 8, 12, 16 and 24 hours following administration, 9 treated animals and 9 vehicle animals were anesthetized with halothane, decapitated, and the left ventricle and mesenteric artery were rapidly harvested and weighed. The mesenteric artery was put in 0.5 ml of 0.4M perchloric acid in a centrifuge tube and the left ventricle put into an empty cryotube. Both tissues were immediately frozen in liquid nitrogen and stored at −70° C. Mesenteric artery catecholamine levels were determined using HPLC with electrochemical detection. At the time of decapitation, plasma samples were taken by draining blood from the carcass into a tube containing heparin, and centrifuging at 4° C.
Each treatment group was compared to vehicle at each time point. A two way analysis of variance (ANOVA) with effects TRT, HARVEST and their interaction was performed. A one way ANOVA with factor TRT was performed for each harvest time. Pairwise analyses between treated and vehicle animals, at each time point, were carried out using Fisher's LSD strategy to control the experiment-wise error rate. […] Levels were marginally (0.05<p<0.1) lower at the 6 hour time point.

[3] = tested on: tissue norepinephrine and dopamine levels; experiment: Tissue catecholamines in Sprague-Dawley rats after single oral dose; type: in vivo
Protocol: as §1

Compound: Cl.NCc1c[nH]c(=S)n1[C@H]1CCc2c(F)cc(F)cc2C1 [nepicastat, (S)-5-Aminomethyl-1-(5,7-difluoro-1,2,3,4-tetrahydronaphth-2-yl)-2,3-dihydro-2-thioxo-1H-imidazole hydrochloride]
- maximal increase in DA/NE ratio ([1]; cerebral cortex): 80 fold
- decrease in noradrenaline ([1]; cerebral cortex): 96%
- increase in dopamine ([1]; cerebral cortex): 166%
- maximal increase in DA/NE ratio ([1]; left ventricle): 151 fold
- decrease in noradrenaline ([1]; left ventricle): 91%
- increase in dopamine ([1]; left ventricle): 700%
- maximal increase in DA/NE ratio ([1]; renal artery): 95 fold
- decrease in noradrenaline ([1]; renal artery): 88%
- increase in dopamine ([1]; renal artery): 627%
- doses at which catecholamine changes attained significance (p<0.05) ([1]; renal artery, left ventricle, cerebral cortex): ≥ 0.1 mg/kg/day
- duration of increase in dopamine/norepinephrine ratio ([2]; 10 mg/kg, mesenteric artery): 12 h
- duration of increase in dopamine/norepinephrine ratio ([2]; 30 mg/kg, left ventricle): 24 h
- time at which increase in dopamine/norepinephrine ratio was significant ([2]; 10 or 30 mg/kg oral): 1 h
- doses inhibiting DBH ([2]; cerebral cortex of rats): 60 to 100 mg/kg/day
- dose with significant change in dopamine/norepinephrine ratio ([2]; cerebral cortex): 10 mg/kg
- oral dose with significant evidence for DBH inhibition ([2]; heart and mesenteric artery, rats): 6 mg/kg/day
- doses inhibiting DBH ([2]; left ventricle and mesenteric artery of rats): 1 to 6 mg/kg/day
- dose with significant change in dopamine/norepinephrine ratio ([2]; left ventricle): 3.0 mg/kg
- dopamine/norepinephrine ratio vs vehicle ([2]; mesenteric artery, 10 mg/kg po, 1, 2, 4, 6 and 12 hour): significantly (p<0.05) greater
- dopamine levels vs vehicle ([2]; mesenteric artery, 10 mg/kg po, 2 and 6 hr): significantly (p<0.05) higher
- norepinephrine, dopamine and ratio ([2]; mesenteric artery, 10 mg/kg po, 16 and 24 h harvest): no changes in any of the three parameters
- dose with significant change in dopamine/norepinephrine ratio ([2]; mesenteric artery): 0.3 mg/kg
- norepinephrine vs vehicle ([2]; mesenteric artery, single 10 mg/kg po, 1-24 h): significantly (p<0.05) lower than vehicle only at the 4 hr time point
- dose with significant increase in dopamine/norepinephrine ratio ([3]; cerebral cortex, only at this dose): 100 mg/kg
- dose with significant increase in dopamine/norepinephrine ratio ([3]; left ventricle, 6 h after single oral dose): 1.0 mg/kg
- dose with significant increase in dopamine/norepinephrine ratio ([3]; mesenteric artery, 6 h after single oral dose): 3.0 mg/kg
